We go through 1 compound from patent publication US20220002772A1, “METHOD FOR PRODUCING ALLOLACTOSE” (priority 2019, published 2022).

In assay [1] the test system is lac promoter on the pUC19 plasmid. Put plainly: Lac promoter inducibility by Blue-White screening method (JM109+pUC19 strain, X-Gal plates). Further details: key to Blue coloration of formed colonies of JM109 + pUC19 strain: “x (cross)” indicates no blue coloration; “Δ (triangle)” indicates unclear blue coloration; “∘ (circle)” indicates clear blue coloration. It is filed as cell-based, E. coli JM109. As to the method:
The lac promoter inducibility of allolactose was evaluated by the Blue-White screening method using E. coli JM109 and pUC19 plasmid.
Competent cells of E. coli JM109 (Takara Bio) were transformed with pUC19 plasmid (Takara Bio), and cultured on LB agar medium containing 50 mg/L ampicillin at 37° C. overnight, to form colonies. The formed colonies were streaked on LB agar medium containing 50 mg/L ampicillin, and single colonies were obtained, to thereby obtain a strain JM109+pUC19. […] Beta-galactosidase activity of the strain JM109 is lost unless alpha-complementarity is exerted.
The reaction mixture containing 55.8 g/L of allolactose obtained in (4) above was subjected to heating at 95° C. for 10 minutes to inactivate the enzyme, and the supernatant was passed through a 0.22 μm pore size filter, to obtain an allolactose solution. The obtained allolactose solution was diluted according to the dilution factors listed in Table 4 and added to LB agar media, and X-Gal (Thermo Fisher Scientific) was further added, to prepare LB agar media for Blue-White screening containing various concentrations of allolactose and X-gal. X-gal is degraded by beta-galactosidase, and the degradation product thereof, 4-chloro-3-bromo-indigo, provides blue coloration.
The JM109+pUC19 strain was streaked on each LB agar medium for Blue-White screening and cultured at 37° C. overnight, and the coloration of single-isolated colonies was observed.

Assay [2] has the same test system. Put plainly: Lac promoter inducibility with DasherGFP reporter (JM109+pUC-DGFP-PtI strain). It is filed as cell-based, E. coli JM109. Conditions: allolactose at 0.0075 mM in LB agar medium, 37° C. overnight, UV illuminator. As to the method: It is assumed that since blue coloration of the degradation product of X-gal by beta-galactosidase (LacZ) was used as the evaluation index in the evaluation in (6) above, allolactose was degraded by beta-galactosidase (LacZ), which is the reporter gene, and as a result the lac promoter inducibility of allolactose was attenuated under conditions with allolactose concentrations of 0.0075 to 0.015 mM.
PCR was performed by using FPB-27-441 plasmid (Cosmo Bio) as the template and primers of SEQ ID NOS: 5 and 6, to amplify a gene fragment encoding DasherGFP. Separately, PCR was performed by using a plasmid pUC19 plasmid (Takara Bio) as the template and primers of SEQ ID NOS: 7 and 8, to amplify an outside fragment of the plasmid. The PCR products were each purified by using Wizard SV Gel and PCR Clean-Up System (Promega). In-Fusion HD Cloning Kit (Takara Bio) was used to ligate the purified PCR products. E. coli JM109 was transformed with the reaction product, and cultured on LB agar medium containing 50 mg/L ampicillin at 37° C. overnight, to form colonies, to thereby obtain a transformant. A plasmid pUC19-DGFP, in which LacZα gene has been replaced with DasherGFP gene, was obtained from the obtained transformant by using Wizard Plus Miniprep System (Promega). […]

The next assay relates to lac promoter. Put plainly: Lac promoter inducibility in pET expression system (GH1-2 protein expression, SDS-PAGE, strain EcGHH6). Format: cell-based, E. coli Rosetta 2(DE3)pLysS. Conditions: liquid culture. On the procedure: The lac promoter inducibility of allolactose was evaluated using the inducibility of pET expression system, which is commonly used for heterologous protein production, as an indicator. In the pET expression system, T7-polymerase, which is inducibly expressed from the lac promoter, highly expresses a gene downstream of the T7 promoter (e.g. a gene encoding a heterologous protein). As the heterologous protein to be produced, beta-galactosidase gene of a filamentous fungus Talaromyces cellulolyticus (hereinafter, also referred to as “gh1-2 gene”) was used.
RNA was prepared form cells of the T. cellulolyticus strain Y-94 (CBS 136886) by using RNeasy Plant Mini Kit (QIAGEN), and a full-length cDNA solution was prepared form the RNA solution by using SMARTer® RACE 5′/3′ kit. PCR was performed by using the cDNA solution as the template and primers of SEQ ID NOS: 13 and 14, to amplify a cDNA fragment of gh1-2 gene. Separately, PCR was performed by using a plasmid pET24a (Novagen) as the template and primers of SEQ ID NOS: 3 and 4, to amplify an outside fragment of the plasmid. The PCR products were each purified by using Wizard SV Gel and PCR Clean-Up System (Promega). In-Fusion HD Cloning Kit (Takara Bio) was used to ligate the purified PCR products. […]

For `OC[C@H]1O[C@@H](OC[C@H]2OC(O)[C@H](O)[C@@H](O)[C@@H]2O)[C@H](O)[C@@H](O)[C@H]1O` (some centres unmarked) [allolactose], the “Blue coloration of colonies (lac promoter inducibility)” value in assay [1] (allolactose concentrations of 0.0075 to 0.015 mM) is reported as “blue coloration was obscured”. Also, in assay [1] (allolactose concentrations of 0.03 to 1.5 mM), the “Blue coloration of colonies, i.e. induction of gene expression from the lac promoter” value is listed as “blue coloration of colonies was observed”. Moreover, the “Blue coloration of formed colonies of JM109 + pUC19 strain” value is “Δ” in assay [1] (final concentration of allolactose in plate media 0.0075 mM (dilution factor 21736)); “Δ” in assay [1] (final concentration of allolactose in plate media 0.015 mM (dilution factor 10868)); “∘” in assay [1] (final concentration of allolactose in plate media 0.03 mM (dilution factor 5434)); “∘” in assay [1] (final concentration of allolactose in plate media 0.075 mM (dilution factor 2174)); “∘” in assay [1] (final concentration of allolactose in plate media 0.15 mM (dilution factor 1087)); “∘” in assay [1] (final concentration of allolactose in plate media 0.3 mM (dilution factor 543)). Besides, the “Blue coloration of formed colonies of JM109 + pUC19 strain” value was “∘” in assay [1] (final concentration of allolactose in plate media 1.5 mM (dilution factor 109)), “Δ” in assay [1] (final concentration of allolactose in plate media 3 mM (dilution factor 54)) and “x” in assay [1] (final concentration of allolactose in plate media 15 mM (dilution factor 11)). In addition, the “Fluorescent coloration of colonies (DasherGFP expression from lac promoter)” value in assay [2] was “fluorescent coloration of the colonies of the JM109+pUC-DGFP-PtI strain was observed”. For the same compound, in the assay on lac promoter (allolactose concentrations below 0.1 mM), the “Expression level of heterologous protein (GH1-2)” value was “decreased”. Further, the “Expression of heterologous protein (GH1-2) compared with induction by 1 mM IPTG” value with lac promoter (allolactose final concentration 0.1 mM, 13° C., 14 hours) is “almost equally”.
